Experimental data published in USRE30456E, “2-Substituted phenyl-s-triazolo[5,1-a] isoquinoline compounds” (Gruppo Lepetit S.p.A., priority 1973, dated 1980).

System: carrageenin induced edema
Assay: carrageenin test in rats (anti-inflammatory activity)
Type: in vivo
From the text: The anti-inflammatory activity of some inventive compounds was evidenced by means of the carrageenin test in rats.

SMILES | inhibition of the carrageenin induced edema (50 mg./kg. p.o.) | inhibition of the carrageenin induced edema (100 mg./kg. p.o.)
Sc1nc2n(n1)CCc1ccccc1-2 [Example 38, 2-Sulfhydryl-5,6-dihydro-s-triazolo[5,1-a]isoquinoline] | about 35% | 
NC(=O)Nc1nc2n(n1)CCc1ccccc1-2 [Example 54, 2-Ureido-5,6-dihydro-s-triazolo[5,1-a]isoquinoline] |  | about 35%
